# Source: PMC8944987, “In Vivo Efficacy of SQ109 against Leishmania donovani, Trypanosoma spp. and Toxoplasma gondii and In Vitro Activity of SQ109 Metabolites” (Biomedicines, 2022)
# Where “and” joins values, the source holds several entries; their conditions need not be identical. Equal entries are not always repeated. Entries after “also recorded” stand apart in the source; their conditions may differ. Where two headings read alike, the source gives them in different places.
# Experiments:
# T. b. brucei Lister 427 = assay: T. brucei acute in vivo mouse model; set-up: species or system BALB/c mice
# T. cruzi epimastigotes = test system: T. cruzi epimastigotes; set-up: method as in PMID 25583723; conditions: cited from earlier work
# [1] = Adverse effects observed during the in vivo experiments; set-up: species or system mice; conditions: tested doses (20 to 100 mg/kg)
# [2] = test system: L. mexicana promastigotes; set-up: method as in PMID 27458218; conditions: cited from earlier work
# [3] = set-up: method as in PMID 16432511; conditions: in mice; cited from earlier work
# [4] = test system: intracellular T. cruzi Dm28c amastigotes in U2OS; assay: T. cruzi intracellular amastigotes assay in U2OS (image based); format: cell-based; conditions: Trypanosoma cruzi
# Protocol: U2OS human osteosarcoma cells were maintained in DMEM supplemented with high glucose, 10% FBS, and 1% P/S at 37 °C with 5% CO2 in air. […] Cell images were acquired by an automated image analyzer (Operetta, Perkin Elmer Technology, Waltham, MA, USA); analysis included at least 1000 cells in five fields per well. For the imaging of infected cells and parasites, Draq-5 was observed under a 20× air objective. An image analysis algorithm (Columbus, Perkin Elmer Technology) was used to detect the Draq-5 signal in the nuclei of cells and parasites as described in a previous article and shown in Supplementary Figure S1 [20]. The number of parasites was defined by the value of the number of parasites in infected cells of the acquired image.
# [5] = cited from earlier work
# [6] = test system: L. donovani promastigotes; set-up: method as in PMID 31897791; conditions: cited from earlier work
# [7] = test system: L. donovani intracellular amastigotes; set-up: method as in PMID 31897791; conditions: J774 macrophages as host cells; cited from earlier work
# [8] = test system: L. donovani promastigotes; assay: L. donovani promastigotes assay (resazurin); format: cell-based; conditions: Leishmania donovani
# T. cruzi Dm28c = assay: T. cruzi acute in vivo mouse model; set-up: species or system BALB/c mice
# Excerpt: BALB/c mice were infected with TCT of T. cruzi Dm28c (10^7 cells) by i.p. injection. Five days post-infection, infected mice were sacrificed to collect BSF of T. cruzi. BALB/c mice were intraperitoneally infected with BSF of T. cruzi Dm28c (5 × 10^4 cells). Five days post-infection, BALB/c mice were infected with previously collected 2nd-round BSF cells (3 × 10^4 cells). Mice were divided into groups (n = 10) and treated orally with drugs for 5 consecutive days for 2 weeks by starting from day 2 post-infection administration of DPBS, 100 mg/kg of benznidazole, or 100 mg/kg of SQ109 via p.o. route, respectively. Parasitemia was evaluated every 2 days for 5 weeks by blood collection from the mouse tail vein, and survival was monitored for 2 months. Mice showing impaired health status were euthanized.
# [9] = test system: THP-1 human monocyte cell line; assay: Host cell toxicity in the L. donovani amastigote assay; format: cell-based; conditions: 3 days of compound incubation; Figure 2F
# Protocol: The THP-1 human monocyte cell line was grown in RPMI-1640 medium (Welgene, Gyeongsangbuk-do, Republic of Korea) supplemented with 10% FBS and 1% P/S. For differentiation, THP-1 cells were treated for 3 days with 50 ng/mL of PMA [20]. […] An image analysis was performed as described in the T. cruzi assay (Figure S2).
# [10] = test system: T. gondii tachyzoites of the RH strain; assay: T. gondii in vivo mouse model; set-up: species or system Webster mice; conditions: for survival of T. gondii infected mice: 20 and 50 mg/kg daily for 10 days
# [11] = test system: L. mexicana intracellular amastigotes; set-up: method as in PMID 27458218; conditions: cited from earlier work
# [12] = Reported plasma protein binding; format: in vitro ADME, mice; conditions: from the reported plasma protein binding
# [13] = test system: Plasmodium falciparum mature gametocytes (stage IV/V); set-up: method as in PMID 33431834; conditions: cited from earlier work
# [14] = Reported tissue (liver) accumulation on repeated oral dosing; format: in vivo; conditions: assuming the same volume-to-mass ratio, 28-day oral dosing, 10 mg/kg, from ref 30, read-out: SQ109 liver concentration
# [15] = in vivo, 25 mg/kg; cited from earlier work
# [16] = test system: intracellular L. donovani amastigotes in THP-1; assay: L. donovani intracellular amastigotes assay in THP-1 (image based); format: cell-based
# T. gondii tachyzoites = assay: In vitro activity assay for T. gondii (td-tomato tachyzoites in hTert fibroblasts); format: cell-based; conditions: Toxoplasma gondii, Fibroblast; human fibroblasts (hTert), fluorescence 3 to 4 days; Figure 6A; read-out: IC50, T. gondii cell growth inhibition (intracellular tachyzoite assay)
# Protocol: We used a parasite strain expressing red fluorescent protein (td-tomato) for in vitro drug testing. Tachyzoites were maintained in human fibroblasts (hTert cells). Human fibroblasts were cultured in 96-well plates for 24 h prior to the addition of 4000 fluorescent tachyzoites/well. Fluorescence values were measured for 3 to 4 days, and both excitation (544 nm) and emission (590 nm) were read from the bottom of the plates in a Molecular Devices (Molecular Devices, LLC, CA, USA) plate reader.
# [17] = 100 mg/kg oral gavage, q.d. for 2 weeks
structure (smiles),measurement,setting,value
"CC(C)=CCC/C(C)=C/CNCCNC1C2CC3CC(C2)CC1C3 (stereo not drawn) [SQ109, N-adamantan-2-yl-N’-((E)-3,7-dimethyl-octa-2,6-dienyl)-ethane-1,2-diamine]",extended survival compared to the vehicle control,"T. b. brucei Lister 427; 30 mg/kg, q.d. for 5 days, p.o.",3.4 days
same,average day of survival,"T. b. brucei Lister 427; 30 mg/kg, q.d. for 5 days, p.o., T. brucei infected BALB/c mice",8.6 days
same,average days of extended survival compared to the vehicle control,"T. b. brucei Lister 427; 100 mg/kg, q.d. for 5 days, p.o.",3.6 days
same,"parasitemia in blood, in words","T. b. brucei Lister 427; 30 or 100 mg/kg p.o. for 5 days, Figure 3B",parasitemia rapidly increased after the termination of SQ109 administration; also recorded: not able to completely clear the parasites in the bloodstream
same,IC50,T. cruzi epimastigotes,4600 nM
same,adverse effects throughout the in vivo experiments,[1],did not observe any adverse effects
same,IC50,[2],~500 nM
same,plasma protein binding,[3],5.8–8.5%
same,IC50,"[4]; 72 h, U2OS host cells, 3 days of compound incubation, Figure 2D, read-out: IC50, intracellular T. cruzi amastigote survival",610 nM
same,EC50,"[4]; amastigotes in U2OS, read-out: T. cruzi Dm28c EC50 (AMA)",1100 nM
same,maximum tolerated dose (MTD),[5],600 mg/kg
same,IC50,[6],630 nM
same,IC50,[7],7.17 nM and 7.2 nM
same,EC50,"[8]; promastigotes, read-out: L. donovani EC50 (PRO)",280 nM
same,IC50,"[8]; 72 h, Figure 2E, read-out: IC50, L. donovani promastigote growth",175 nM
same,delay of the peak of parasitemia compared to the vehicle control,T. cruzi Dm28c; [17],4 days
same,peak of parasitemia,T. cruzi Dm28c; [17],18 days post-infection
same,parasite reduction at the peak of parasitemia of the vehicle group,"T. cruzi Dm28c; 100 mg/kg oral gavage, q.d. for 2 weeks, 14 days post-infection",46.1%
same,survival of T. cruzi infected mice,"T. cruzi Dm28c; 100 mg/kg p.o., 40 days post-infection",80%
same,host cell (THP-1) toxicity: concentration up to which none was observed,[9],> 10 µM
same,survival / protection of T. gondii infected mice against the initial infection,"[10]; hypervirulent RH strain, 50 mg/kg i.p.",Eighty percent
same,survival of T. gondii infected mice,"[10]; i.p., Figure 6B",50–80%
same,survival of T. gondii infected mice,"[10]; oral gavage, 40 days post-infection, Figure 6C",30–40%
same,animals surviving the re-challenge at day 42,[10]; treated with 20 mg/kg/day,4 out of 6
same,"outcome of the re-challenge at 42 days, in words",[10]; treated with 50 mg/kg/day,all died with the challenge
same,IC50,[11],~11 nM
same,free-drug fraction expected in mice plasma,[12],~ 90%
same,IC50,[13],105 nM
same,concentration at 28 days,[14],~6 µM
same,t1/2 (terminal phase),[15],5.2 h
same,anti-amastigote activity in the current study less than the reported one,"[16]; L. donovani, THP-1 (this study) versus J774 (ref 10)",~ 200 fold
same,IC50,"[16]; Leishmania donovani, 72 h, differentiated THP-1 host cells, 3 days of compound incubation, Figure 2F",1380 nM
same,IC50,T. gondii tachyzoites,1820 nM
